Test results from patent US6984493B1, “Method for examining the involvement of opioid peptides in prurtis” (Toray Industries, Inc., priority 2000, dated 2006).

Test system: severe itching
Description: One capsule of a κ-opioid agonist 17-cyclopropylmethyl-3, 14β-dihydroxy-4,5α-epoxy-6β-(N-methyl-trans-3-(3-furyl)acrylamide) morphinan hydrochloride capsule (10 μg/body) was administered to each of the selected patients. […] To quantitatively determine the severity of itching, visual analogue scale (VAS) was employed, in which the severity of itching was determined on a straight line of 0 to 100 mm where no itching was rated as “0” and the supposable most severe itching was rated as “100”.

Q: What does the source list for `CN(C(=O)/C=C/c1ccoc1)[C@@H]1CC[C@@]2(O)[C@H]3Cc4ccc(O)c5c4[C@@]2(CCN3CC2CC2)[C@H]1O5.Cl` (relative stereo) [17-cyclopropylmethyl-3, 14β-dihydroxy-4,5α-epoxy-6β-(N-methyl-trans-3-(3-furyl)acrylamide) morphinan hydrochloride]?
A: visual analogue scale (VAS) of severity of itching, mean of the four subjects (after 4 to 24 hours from the administration, one capsule 10 μg/body, four patients with severe itching, VAS 75 mm before administration, scale 0 to 100 mm): 0 mm; relief of itching (after two hours from the administration, all administered patients (four), one capsule 10 μg/body): itching was relieved; antipruritic effect on administration (summary statement referring to Example 2) (as shown in Example 2): apparent antipruritic effect; duration of antipruritic effect (continued until) (time from the administration, all administered patients (four), one capsule 10 μg/body): 24 h
